Data from patent US20250136581A1, “SUBSTITUTED TRIAZOLE DERIVATIVE, PREPARATION METHOD THEREFOR, PHARMACEUTICAL COMPOSITION THEREOF, AND USE THEREOF” (SHANGHAI SIMR BIOTECHNOLOGY CO., LTD., priority 2021, published 2025).
Where two headings read alike, the source gives them in different places.

Experiments:
α5-GABAA receptor = conditions: GABA 1 μM, highest concentration of L-655,708; cited from earlier work
human α2β3γ2 receptors = human α2β3γ2 receptors (Homo sapiens (Human), UniProt P18507+P47869); assay: 3H-flunitrazepam competition binding, human α2β3γ2 GABAA receptor; conditions: HEK293 cell membranes, 1 nM 3H-flunitrazepam; read-out: Ki α2
Protocol: (§1) The affinity of the compound to each subtype of GABAA receptor was determined by competing for the binding of ^3H-flunitrazepam to HEK293 cells stably expressing human α1β3γ2, α2β3γ2, α3β3γ2, and α5β3γ2 receptors.
(§2) The cells were suspended in 50 mM Tris-HCl buffer (pH=7.4), homogenized 10 times on ice with a homogenizer for 20 seconds, and centrifuged at 1000 g for 10 minutes at 4° C. The supernatant was collected, and the above steps were repeated. The supernatant was centrifuged at 4° C. (33800 g; Thermo, rotor: A27-8×50) for 60 minutes, and the precipitate was resuspended in Tris buffer (50 mM Tris-HCl, 10 mM MgCl2, 0.5 mM EDTA, 10% glycerol). Protein was measured (BCA method, Pierce), and 1 mL aliquots were prepared and stored at −80° C.
(§3) The radioligand competition binding assay was performed in a 200 μL system (96-well plate) containing 100 μL of cell membrane. The concentration of ^3H-flunitrazepam was 1 nM and the concentration of the test compound was in the range of […]. Flumazenil was used as a control. 1 μL of 2 mM flumazenil (final concentration […]) was added to the low signal control well (Low control, LC), and 1 μL of DMSO was added to the high signal control well (High control, HC). The final concentration of target membrane protein was […]. All test compound sample storage solutions were 10 mM. The working concentration of the samples was to dilute all the samples to 0.2 mM with DMSO, followed by 4-fold serial gradient dilutions for a total of 8 concentration gradients. The 96-well plate was sealed with a sealing film, and then incubated on a shaker at room temperature for 1 hour. At the same time, the GF/C filter plate was soaked in soaking buffer (0.3% PEI, stored at 4° C.) for at least 0.5 hours. After the binding incubation was completed, the cells were collected onto a GF/C filter plate using a cell harvester. The plate was washed four times with washing buffer (50 mM Tris-HCl, pH 7.4, stored at 4° C.). After drying in a 50° C. oven for 1 hour, the bottom of the dried GF/C filter plate was sealed. The residual radioactivity on the filter membrane was detected using liquid scintillation counting. 50 μL of scintillation fluid was added to each well, and the plate was sealed. The readings were taken using a Microbeta2. The inhibitory activity of the test sample on the binding of ^3H-flunitrazepam to GABAA receptor membrane proteins was calculated, and the IC50 of each test sample was calculated by dose-effect curve fitting (GraphPad Prism 5 software), and the Ki of the sample was calculated from the IC50, thus evaluating the binding ability of the sample to the various subtypes of GABAA receptors.

[1] = biological target: human α5β3γ2 receptors (α5-GABAA receptor) (Homo sapiens (Human), UniProt P18507+P31644); assay: 3H-flunitrazepam competition binding, human α5β3γ2 GABAA receptor; conditions: HEK293 cell membranes, 1 nM 3H-flunitrazepam; read-out: α5-GABAAR Ki
Procedure, shortened: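 HEK293 membranes stably expressing each human receptor subtype ([…]) competed against 1 nM 3H-flunitrazepam in Tris buffer, 1 h at room temperature; flumazenil defined the low-signal control. Eight-point 4-fold test-compound dilutions; GF/C filtration and scintillation counting gave IC50 by curve fitting, converted to Ki.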

human α1β3γ2 receptors = human α1β3γ2 receptors (Homo sapiens (Human), UniProt P14867+P18507); assay: 3H-flunitrazepam competition binding, human α1β3γ2 GABAA receptor; conditions: HEK293 cell membranes, 1 nM 3H-flunitrazepam; read-out: Ki α1
Protocol: as §1, §2, §3

[2] = Rat pharmacokinetic experiment; assay type: in vivo; conditions: for Cmax / Kp: rat, po; for Cmax: plasma; for Kp: male, SD, brain / plasma, read-out: B/P (proportion of compounds entering the brain)
Protocol: The maximum plasma concentration (Cmax) in the rat pharmacokinetic experiment was used to evaluate the absorption of the compounds in rat in vivo. The experimental compound was dissolved and then orally administered by gavage (p.o.) to male SD rats. The rats were fasted overnight before drug administration, and blood was collected via venipuncture at 0.25, 0.5, 1, 2, 4, and 7 hours post dose. Approximately 100 μL blood was collected for each sample; at the same time, the whole brain was taken and homogenized with 3 times the amount of PBS for analysis. The […] method was used to determine drug concentrations in plasma and brain tissue, and the proportion of compounds entering the brain (B/P) was calculated based on the AUC of the compound. Pharmacokinetic parameters were calculated using Phoenix WinNonlin 7.0. The administration vehicle was 5% CMC-Na aqueous solution.

human α3β3γ2 receptors = human α3β3γ2 receptors (Homo sapiens (Human), UniProt P18507+P34903); assay: 3H-flunitrazepam competition binding, human α3β3γ2 GABAA receptor; conditions: HEK293 cell membranes, 1 nM 3H-flunitrazepam; read-out: Ki α3
Protocol: as §1, §2, §3

[3] = biological target: α5-GABAA receptor (α5, β3, γ2 subunits) (Homo sapiens (Human), UniProt P18507+P31644); assay: Whole cell patch clamp, inverse agonist efficacy in HEK293 cells expressing α5-GABAA receptor; assay type: cell-based; conditions: HEK293, drug 100 nM, GABA 0.05 μM, −60 mV; read-out: Compound inverse agonist efficacy %
Procedure, shortened: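 Stable HEK293 line co-expressing human α5, β3, γ2 subunits; whole-cell patch clamp at −60 mV, inward current evoked by 0.05 μM GABA, then compound at 100 nM in GABA solution applied. Effect derived from leak, pre- and post-drug GABA currents.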

Ki (human α2β3γ2 receptors)	Ki [1]	Ki (human α1β3γ2 receptors)	B/P (proportion of compounds entering the brain) ([2]; male SD rats, p.o., 3 mg/kg, based on AUC)	Cmax ([2]; male SD rats, 3 mg/kg)	Ki (human α3β3γ2 receptors)	inhibition at 0.1 µM [3]	Kp ([2]; 3 mg/kg)	Kp ([2]; 1 mg/kg)	Cmax ([2]; male SD rats, 1 mg/kg)	Structure (SMILES)	suppression of the current induced by GABA (α5-GABAA receptor)
										CCOC(=O)c1ncn2c1[C@@H]1CCCN1C(=O)c1cc(OC)ccc1-2 [L-655,708]	15%
27.2 nM	1.11 nM	73.5 nM	3.81%	3180 ng/mL	26.3 nM	40.5%				Cc1nnn(-c2ccc(C(F)F)cc2)c1COc1cnc(N2CCNC(=O)C2)cn1 [Example 169, 4-(5-((1-(4-(Difluoromethyl)phenyl)-4-methyl-1H-1,2,3-triazol-5-yl)methoxy)pyrazin-2-yl)piperazin-2-one]	
231 nM	5.39 nM	389 nM		3020 ng/mL	68.7 nM	42.3%	0.0166			Cc1nnn(-c2ccc(C(F)F)cc2)c1COc1ccc(N2CC(C(=O)NC(C)C)C2)nn1 [Example 155, 1-(6-((1-(4-(Difluoromethyl)phenyl)-4-methyl-1H-1,2,3-triazol-5-yl)methoxy)pyridazin-3-yl)-N-isopropylazetidine-3-carboxamide]	
41.7 nM	1.24 nM	36.7 nM			21.8 nM	49.3%		0.045	576 ng/mL	Cc1nnn(-c2ccc(C(F)F)cc2)c1COc1ccc(N2CCNC(=O)C2)cn1 [Example 21, 4-(6-[(1-(4-(Difluoromethyl)phenyl)-4-methyl-1H-1,2,3-triazol-5-yl)methoxy]pyridin-3-yl)piperazin-2-one]	
